Experimental data from the SangsterLogP compilation.

SMILES | logP
CN(C)c1cc(N)[n+]([O-])c(N)n1 | 0.16
CCCCCCCCCCNc1cc(N)[n+]([O-])c(N)n1 | 4.08
CCCCN(CCCC)c1cc(N)[n+]([O-])c(N)n1 | 3.19
CNc1cc(N)[n+]([O-])c(N)n1 | -0.49
CCCN(CCC)c1cc(N)[n+]([O-])c(N)n1 | 2.16
CCN(CC)c1cc(N)[n+]([O-])c(N)n1 | 1.16
CCCCNc1cc(N)[n+]([O-])c(N)n1 | 1.02
C=CCN(CC=C)c1cc(N)[n+]([O-])c(N)n1 | 1.6

The next lines start with the values.

logP | SMILES
0.36 | Nc1cc(N2CCOCC2)nc(N)[n+]1[O-]
1.62 | Nc1cc(NC2CCCCC2)nc(N)[n+]1[O-]
-0.04 | CCNc1cc(N)[n+]([O-])c(N)n1
3.89 | Nc1cc(N(C2CCCCC2)C2CCCCC2)nc(N)[n+]1[O-]
0.84 | N=c1nc(N)c(N2CCCC2)cn1O
